Results published in ChEMBL document CHEMBL1201862, “PubChem BioAssay data set” (2004).
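Interpolation was linear, between the two tested concentrations surrounding the appropriate level; five concentrations were tested over 48 hours in 96-well plates. GI50 marks 50% less growth.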 Activity calls are given as the source filed them. Rule as the data show it: active = GI50 up to about 1.1 µM and inactive = higher.

How the values were obtained:
Test in all cases: NCI-60 cell line screen, 48 h
CCRF-CEM = system: CCRF-CEM
DU-145 = system: DU-145
EKVX = system: EKVX
Hs-578T = system: Hs-578T
IGROV-1 = system: IGROV-1
K562 = system: K562
M14 = system: M14
MDA-MB-231 = system: MDA-MB-231
MDA-MB-435 = system: MDA-MB-435
MOLT-4 = system: MOLT-4
NCI-H23 = system: NCI-H23
NCI-H522 = system: NCI-H522
NCI/ADR-RES = system: NCI/ADR-RES
OVCAR-4 = system: OVCAR-4
OVCAR-5 = system: OVCAR-5
SF-539 = system: SF-539
SNB-75 = system: SNB-75
SR = system: SR
T47D = system: T47D
UACC-62 = system: UACC-62

Row | Compound | GI50 (CCRF-CEM) | GI50 (DU-145) | GI50 (EKVX) | GI50 (Hs-578T) | GI50 (IGROV-1) | GI50 (K562) | GI50 (M14) | GI50 (MDA-MB-231) | GI50 (MDA-MB-435) | GI50 (MOLT-4) | GI50 (NCI-H23) | GI50 (NCI-H522) | GI50 (NCI/ADR-RES) | GI50 (OVCAR-4) | GI50 (OVCAR-5) | GI50 (SF-539) | GI50 (SNB-75) | GI50 (SR) | GI50 (T47D) | GI50 (UACC-62)
1 | CN1CCN(c2ccc3nc(C4=C(O)C(=O)c5c(nc(CCl)n5C)C4=O)[nH]c3n2)CC1 | > 50 µM (inactive) | 10.1 µM (inactive) | 21.7 µM (inactive) | 18.7 µM (inactive) | 8.38 µM (inactive) | 24.2 µM (inactive) | 9.4 µM (inactive) | 10.9 µM (inactive) | 9.86 µM (inactive) | 21.8 µM (inactive) | 11.5 µM (inactive) | 1.56 µM (inactive) | > 50 µM (inactive) | 15.7 µM (inactive) | 14.2 µM (inactive) | > 50 µM (inactive) | 3.72 µM (inactive) | 31.8 µM (inactive) | 0.796 µM (active) | 9.89 µM (inactive)
2 | COC(=O)CN(CC(O)C(NC(C)=O)C(O)C=O)C(=O)OCc1ccccc1 (stereo not given) | > 100 µM (inactive) | > 100 µM (inactive) | > 100 µM (inactive) | > 100 µM (inactive) | > 100 µM (inactive) | > 100 µM (inactive) | > 100 µM (inactive) | > 100 µM (inactive) | > 100 µM (inactive) | > 100 µM (inactive) | > 100 µM (inactive) | > 100 µM (inactive) | > 100 µM (inactive) | > 100 µM (inactive) | > 100 µM (inactive) | > 100 µM (inactive) | > 100 µM (inactive) | > 100 µM (inactive) | > 100 µM (inactive) | > 100 µM (inactive)
3 | O=[N+]([O-])/C(C(Cl)=C(Cl)Cl)=C(/Cl)SCc1ccccc1 | 0.202 µM (active) | 17.3 µM (inactive) | 20.4 µM (inactive) | 4.48 µM (inactive) | 20.7 µM (inactive) | 1.15 µM (inactive) | 1.83 µM (inactive) | 2.3 µM (inactive) | 2.35 µM (inactive) | 0.393 µM (active) | 6.03 µM (inactive) | 2.78 µM (inactive) | 1.85 µM (inactive) | 2.85 µM (inactive) | 5.09 µM (inactive) | 6.62 µM (inactive) | 1.02 µM (active) | 1.43 µM (inactive) | 14.6 µM (inactive) | 3.94 µM (inactive)
4 | CC(CCC(=O)O)(c1cc(Br)c(O)c(Br)c1)c1cc(Br)c(O)c(Br)c1 | < 0.01 µM (active) | 70.3 µM (inactive) | > 100 µM (inactive) | > 100 µM (inactive) | 88.3 µM (inactive) | 71.3 µM (inactive) | 33.3 µM (inactive) | 94.8 µM (inactive) | 65.8 µM (inactive) | 48.3 µM (inactive) | 47.4 µM (inactive) | 39.6 µM (inactive) | 83.8 µM (inactive) | > 100 µM (inactive) | > 100 µM (inactive) | 50.4 µM (inactive) | 55.7 µM (inactive) | 39.1 µM (inactive) | 29.9 µM (inactive) | 41 µM (inactive)
5 | O=[N+]([O-])c1cccc2nc3ccccc3c(NCCC[N+]3([O-])CCCCC3)c12 | 0.546 µM (active) | 0.35 µM (active) | 0.438 µM (active) | 0.82 µM (active) | 0.394 µM (active) | 1.1 µM (active) | 1.2 µM (inactive) | 0.351 µM (active) | 0.18 µM (active) | 0.198 µM (active) | 0.232 µM (active) | 0.134 µM (active) | > 100 µM (inactive) | 0.315 µM (active) | 0.498 µM (active) | 0.479 µM (active) | 0.416 µM (active) | 0.0479 µM (active) | 0.41 µM (active) | 0.272 µM (active)
